The record followed here is US9150608B2, “Neuro-protective compounds and their use” (Biotechnology Research Corp. Ltd., priority 2010, dated 2015).

Assay [1] relates to Aβ25-35-treated primary cortical neurons. Nature of the assay: Cortical neuron survival assay with amyloid-beta peptide insult (MTT). The class given is cell-based, rat. As to conditions: 50 μM, except GAG-C69 at 30 μM; Aβ25-35 10 μM (FIG. 19). On the procedure: FIG. 4. […] After overnight incubation, the MTT assay was performed. Cell survival was calculated as a percentage compared to vehicle control (“CTL no Abeta”).
Exogenous addition of amyloid beta peptide (Aβ) initiates cell death of neuronal cultures via apoptosis.
The cells were then incubated with test samples and amyloid-beta peptide fragment 25-35 (Aβ, 10 μM, Sigma) in growth medium. A tetrazole, 3-(4,5-Dimethylthiazol-2-yl)-2,5-diphenyltetrazolium bromide (MTT, 5 mg/ml) was added to the medium at a ratio of 1:10 after 24-hr incubation. MTT is reduced by living cells into purple formazan and further solubilized in 20% SDS solution; therefore, the colored solution was measured by spectrophotometer and cell viability was quantified.

The test system of assay [2] is NMDA receptor-induced excitotoxicity in primary cortical neuronal cells. Nature of the assay: NMDA survival assay (LDH release). Particulars: 30-50 μM pre-treated 2 hours, NMDA 20 min (FIG. 17). (LDH leaks from cells whose membrane has failed.)
Procedure: Embryonic rat cortical neurons (11 DIV) were pre-treated with various concentrations of AG—0 (0.1 -30 μg/mL) and then co-incubated with NMDA (20 μM). After 20 min, the medium was replaced with fresh medium, and after overnight incubation lactate dehydrogenase (LDH) released into the medium was measured. Cell death was calculated as a percentage compared to solvent control (“CTL without NMDA”). Assays were conducted in duplicate and repeated at least twice. *=P<0.05.
Cortical neurons were plated on 48-well plate (Nunc) at a density of 1.1×10^5 cells per well and cultured for 11-12 days (11-12 DIV). Neurons were pre-treated with the test compounds for 2 hours prior to N-Methyl-D-Aspartate (NMDA, Sigma) or glutamate (MSG, Sigma) treatment. Briefly, the neurons were rinsed with Locke's solution (5 mM potassium chloride, 128 mM sodium chloride, 2.7 mM calcium chloride, 1 mM di-sodium hydrogen orthophosphate, 5 mM HEPES and 10 mM glucose in Milli-Q water) without Mg^2+, followed by incubation in Locke's solution with addition of glycine (0.1 μM) for 15 minutes. After the incubation, the neurons were co-treated with the test compound (dissolved in Locke's plus glycine solution) and NMDA (20 μM) or glutamate for 20 min. Neurons were then rinsed with Locke's solution containing Mg^2+ and replaced with fresh growth medium. Cell death was assayed and quantified using the lactate dehydrogenase release assay (Cytotoxicity Detection Kit, Roche). Data was compared to a DMSO vehicle control and represented in mean±SEM. The student t-test was used for statistical analysis.
The subject of assay [3] is rat cortical neurons cultured in the absence of B27. Nature of the assay: Cortical neuron survival assay with B27 withdrawal (MTT). In kind it is cell-based. Particulars: for cell survival of cortical neurons in the absence of B27 (MTT): 30 μM, pre-treated 24 hours (FIG. 15); for concentration showing neuroprotective effect in the absence of B27 (MTT): primary cortical neurons 7DIV, dose-dependent study 1-30 μM. The method, then:
FIG. 2. Adelostemma gracillimum refined fraction promotes rat cortical neuron survival against B27 withdrawal. Cortical neurons isolated from embryonic day 18 rats were cultured in Neurobasal medium supplemented with 2 % B27. […] A MTT assay was performed 24 hours later. Cell survival is presented as a percentage compared to a DMSO control in the presence of B27 (“CTL with B27”). Assays were conducted in triplicate and repeated at least twice. *=P<0.05.
Primary cortical neurons were cultured in Neurobasal medium and supplemented with B27, a proprietary formula of Life Technologies. The combination of Neurobasal medium and B27 provides a stable growth environment for primary neurons to maturity in vitro. Neurons undergo apoptosis or cell death in the absence of B27. To study the neuroprotective effect of Adelostemma gracillimum refined fraction, neurons of 7DIV were treated with AG-0 and cell survival was measured as mitochondrial activity by the MTT assay.
The cells were then washed with Hanks' solution twice and replaced with test samples that were serial diluted in Neurobasal medium. A tetrazole, 3-(4,5-Dimethylthiazol-2-yl)-2,5-diphenyltetrazolium bromide (MTT, 5 mg/ml) was added to the medium at a ratio of 1:10 after a 2-day incubation. MTT is reduced by living cells into purple formazan and further solubilized in 20% SDS solution; therefore, the colored solution was measured by spectrophotometer and cell viability was quantified.

Assay [4] has as its system cyclic AMP response (CRE) element. Nature of the assay: CRE-dependent transcription assay (luciferase). In kind it is cell-based, rat. As to conditions: hippocampal neurons 12DIV, 50 μM, 6 hours. On the procedure: FIG. 41. GAG compounds enhance CRE-dependent transcription activity. GAG-C14 (a), GAG-C53 (b), GAG-C63 (c), GAG-C69 (d), GAG-C84 (e), GAG-C111 (f), GAG-C122 (g), GAG-C123 (h), and GAG-C129 (i) induce CRE-dependent transcriptional activity in cultured hippocampal neurons. On the day of cell seeding, hippocampal neurons were transfected with a firefly luciferase reporter plasmid containing cyclic AMP response (CRE)-element. The cells at 12 DIV were then treated with 50 μM of AG compounds for 6 hours. Data are mean±SEM (n=3-4), *=P<0.05, **=P<0.01, and ***=P<0.005 versus vehicle-treated cells (0 μM), student's t test.
Cultured hippocampal neurons were transfected with a firefly luciferase reporter plasmid containing a cyclic AMP response (CRE) element. At 12DIV, the cells were treated with 50 μM of compound for 6 hours, then CRE-dependent transcription activity was assayed by measuring luciferase levels.
Freshly isolated embryonic cortical neurons were transfected with a luciferase reporter gene (Cre-Luc) linked to CREB activation following the ACM lipofectamine method using Lipofectamine 2000, a cationic liposome based reagent (Invitrogen). […] Transfection was performed using 1 μL Lipofectamine 2000 and 0.4 μg DNA per well. Neurons were then treated with test samples for time periods of 6 hours. After treatment, the cells were washed with ice-cold DPBS and 100 μL of 1× luciferase lysis buffer (Promega) was added. The plates were placed in −20° C. to freeze the cells, after which they were thawed to facilitate lysis. The lysates were transferred onto white bottom plates and assayed for renilla luciferase using the luciferase assay kit (Promega). Increased CREB activation in the neurons leads to an enhanced luciferase production and this was quantified using a Promega GloMax™ 96 microplate luminometer. […] BDNF and rolipram were used as positive controls.

Assay [5] concerns phosphorylated ERK, CREB, Akt, P38, MEK in cortical neurons. Nature of the assay: Western blot detection of signaling proteins in cortical neurons. In kind it is cell-based, rat. Particulars: cortical neurons 7DIV.

With “3-O-β-D-Cymaropyranose-(1→4)-β-D-Digitoxopyranose-12-trans-cinnamyl-20-acetyl-8,14-seco-sacrostin [GAG-C30]”, the “cell survival of cortical neurons treated with Aβ25-35 (MTT)” value (from here on “cell survival … with Aβ25-35 (MTT)”) in assay [1] is reported as “promoted cell survival”.
Consider “12-O-cis/trans-cinnamoyl-20-acetyl-8,14-seco-sarcostin 3-O-β-D-Cymaropyranosyl-(1→4)-β-D-Cymaropyranosyl-(1→4)-β-D-Digitoxopyranosyl-(1→4)-β-D-Cymaropyranosyl-(1→4)-β-D-Oleandropyranoside [GAG-C104]”, for which the “neuronal survival following NMDA treatment (LDH)” value in assay [2] is “promoted neuronal survival”. Also, the “cell survival … with Aβ25-35 (MTT)” value in assay [1] is reported as “promoted cell survival”.
As to “12-O-cis/trans-cinnamoyl-20-acetyl-8,14-seco-sarcostin 3-O-β-D-Cymaropyranosyl-(1→4)-β-D-Cymaropyranosyl-(1→4)-β-D-Oleandropyranosyl-(1→4)-β-D-Oleandropyranoside [GAG-C96]”, the “neuronal survival following NMDA treatment (LDH)” value in assay [2] is listed as “promoted neuronal survival”.
Still for that read-out and setting: in the case of “12-O-cis/trans-cinnamoyl-20-acetyl-8,14-seco-sarcostin 3-O-β-D-Cymaropyranosyl-(1→4)-β-D-Digitoxopyranosyl-(1→4)-β-D-Oleandropyranosyl-(1→4)-β-D-Oleandropyranoside [GAG-C102]” it was “promoted neuronal survival”; in that of “12-O-cis/trans-cinnamoyl-20-acetyl-8,14-seco-sarcostin 3-O-β-D-Cymaropyranosyl-(1→4)-β-D-Oleandropyranosyl-(1→4)-O-D-Oleandropyranoside [GAG-C90]”, “promoted neuronal survival”; in that of “12-O-cis/trans-cinnamoylsacrostin 3-O-β-D-Cymaropyranosyl-(1→4)-β-D-Oleandropyranosyl-(1→4)-β-D-Oleandropyranoside [GAG-C86]”, “promoted neuronal survival”.
As for `C/C=C/c1ccc(OC(C)C(O)c2ccc(O)c(O)c2)c(OC)c1` (stereo not shown) [GAG-C13, 3,4,7-trihydroxyl-3′-methoxy-(7′E)-(8-O-4′)-neolignan-7′-en], in assay [2], the “neuronal survival following NMDA treatment (LDH)” value is listed as “promoted neuronal survival”. Besides, the “cell survival … with Aβ25-35 (MTT)” value in assay [1] was “promoted cell survival”. Also, the “cell survival of cortical neurons in the absence of B27 (MTT)” value (shortened to “cell survival … of B27 (MTT)”) in assay [3] was “promoted cell survival”.
Consider `COc1cc(C2Oc3c(OC)ccc(C(C)=O)c3C2C)ccc1O` (stereo not shown) [GAG-C51, 3-methoxyl-4,4′-dihydroxy-1″-athanone-3′7-epoxy-8,2″-neolignane], for which the “neuronal survival following NMDA treatment (LDH)” value in assay [2] is on record as “promoted neuronal survival”.
For `C/C=C/c1cc(O)c(OC(C)C(O)c2cc(OC)c(O)c(OC)c2)c(OC)c1` (stereo not shown) [GAG-C59, 4,5′,7-trihydroxy-3, 3′,5-trimethyoxyl-hydroxy-(7′E)-(8-O-4)-neolignan-7′ en], the “cell survival … with Aβ25-35 (MTT)” value in assay [1] was “promoted cell survival”.
Regarding `COc1cc(C2c3cc(OC)c(O)cc3C3Oc4c(C(C)=O)ccc(O)c4CC3C2CO)ccc1O` (stereo not shown) [GAG-C61, 4-hydroxy-3′-methoxy-(7′E)-5′7-epoxy-8,4′-oxyneolignane-7′ en], in assay [2], the “neuronal survival following NMDA treatment (LDH)” value was “promoted neuronal survival”.
As to `C[C@]12CC[C@H]3[C@@H](C=CC4=CC(=O)CC[C@@]43C)[C@@H]1CC(C(=O)O)C2` (stereo partly shown) [GAG-C63, 4,6-diene-16-carboxylic acid-3-oxo-androstane], the “CRE-dependent transcription activity (luciferase)” value in assay [4] is given as “enhances CRE-dependent transcription”.
Consider `CC1CC(C)(C)C2C=C(CC/C=C/C1=O)C(=O)O2` (stereo not shown) [GAG-C65, 8-oxohumula-2, 6(E)-dien-1,12-olide], for which the “neuronal survival following NMDA treatment (LDH)” value in assay [2] is given as “promoted neuronal survival”.
As for `COc1cc([C@@H]2c3cc(OC)c(O)cc3C=C(C)[C@H]2C)ccc1O` [GAG-C70, (7′α,8′β)-4,4′-dihydroxyl-3,3′-dimethyoxyl-6,7′-cycloligane-7-en], in assay [2], the “neuronal survival following NMDA treatment (LDH)” value is on record as “promoted neuronal survival”. Moreover, the ERK phosphorylation entry in assay [5] (0.1-10 μM, 15 min (FIGS. 16, 18, 20)) is “induced ERK phosphorylation”. Moreover, the “cell survival … with Aβ25-35 (MTT)” value in assay [1] is reported as “promoted cell survival”.
In the case of `CC1(C)CC[C@@]2(C(=O)O)CC[C@]3(C)C(=CCC4[C@@]5(C)CCC(O)C(C)(CO)C5CC[C@]43C)C2C1` (stereo partly drawn) [GAG-C74, 3β,23-dihydroxyolean-12-en-28-oic acid], the “cell survival … with Aβ25-35 (MTT)” value in assay [1] is reported as “promoted cell survival”.
Take `COc1cc(C)cc(C(O)C(O)c2cc(C)ccc2OC)c1` (stereo not shown) [GAG-C80, 2-(2-methoxy-5-methylphenyl)-1-(3-methoxy-5-methylphenyl)-ethane-1,2-diol]: in assay [3], the “cell survival … of B27 (MTT)” value is on record as “promoted cell survival” and the “concentration showing neuroprotective effect in the absence of B27 (MTT)” value lay in the range of 10 to 30 µM.
Turning to `CC(C)=CCOc1c2occc2cc2ccc(=O)oc12` [GAG-C81, 8-(3-methylbut-2-enyloxy)-psoralen], in assay [3], the “cell survival … of B27 (MTT)” value is “promoted cell survival”. In addition, in assay [3] (1-50 μM), the “neuroprotective effect in the absence of B27 (MTT)” value is given as “exhibited neuroprotective effects in a dose-dependent manner”.
Regarding `COc1c2ccoc2c(OCC=C(C)C)c2oc(=O)ccc12` [GAG-C82, 8-(3-methylbut-2-enyloxy)-5-methoxyl-psoralen], the “cell survival … of B27 (MTT)” value in assay [3] is “promoted cell survival”.
With `COC1CC(OC2C(C)CC(OC3C(C)OC(OC4CC[C@@]5(C)C(=CC[C@]6(O)C5C[C@@H](OC(=O)C=Cc5ccccc5)[C@@]5(C)[C@]6(O)CC[C@@]5(O)C(C)=O)C4)CC3OC)CC2OC)OC(C)C1O` (stereo partly drawn) [GAG-C87, Ikemagenin 3-O-β-D-Cymaropyranosyl-(1→4)-β-D-Oleandropyranosyl-(1→4)-β-D-Oleandropyranoside], the “neuronal survival following NMDA treatment (LDH)” value in assay [2] is on record as “promoted neuronal survival”.
Still for that read-out and setting: as for `COC1CC(OC2C(C)OC(OC3C(C)OC(OC4C(C)OC(OC5CC[C@@]6(C)C(=CC[C@]7(O)C6C[C@@H](OC(=O)/C=C(\C)C(C)C)[C@@]6(C)[C@]7(O)CC[C@@]6(O)C(C)=O)C5)CC4OC)CC3OC)CC2OC)OC(C)C1O` (stereo partly drawn) [GAG-C92, Caudatin 3-O-β-D-Cymaropyranosyl-(1→4)-β-D-Cymaropyranosyl-(1→4)-β-D-Oleandropyranosyl-(1→4)-β-D-Oleandropyranoside], the entry is “promoted neuronal survival”.
For `C/C=C/c1ccc(OC(C)C(O)c2cc(OC)c(O)c(OC)c2)c(OC)c1` (stereo not shown) [GAG-C121, 3,3′,5-trimethoxy-4,7-dihydroxyl-(7′E)-(8-O-4′)-neolignan-7′en], the “cell survival … with Aβ25-35 (MTT)” value in assay [1] is given as “promoted cell survival”.
As for “(K)-methyl 15-hydroxy-15-methoxy-12-oxopentadec-13-enoate [GAG-C78]”, in assay [5] (30 μM), the “ERK phosphorylation time course” value was “significantly induced ERK phosphorylation in cortical neurons from 15 min and persistently to 180 min”. Besides, the CREB phosphorylation result in assay [5] (30 μM, 15 min of incubation) is “induced CREB phosphorylation”. In assay [3], the “cell survival … of B27 (MTT)” value is listed as “promoted cell survival” and the “concentration showing neuroprotective effect in the absence of B27 (MTT)” value lay within 10 to 30 µM.
